According to US12251427B2, “Reduced oxygen carriers and their use for the treatment of carboxyhemoglobinemia” (priority 2016, dated 2025):

Tests used:
[1] = LD50 dose in mice (calculated); conditions: mice of approximately 25 g
[2] = rats; cited from earlier work
[3] = cited from earlier work
[4] = system: HbCO; test: HbCO removal in CO poisoned mice (1500 ppm CO, moderate CO poisoning model); assay type: in vivo; conditions: after 5 minutes of return to normal air, 250 μL of 8-12 mM infused
Description: FIG. 1 is a graph showing the in vivo binding of CO from hemoglobin by recombinant neuroglobin in a mouse model for moderate CO poisoning.
(§1) It was previously shown that exposure of mice to air with 1500 ppm CO gas for an average of 50 minutes caused HbCO levels to increase to 64%+/−1% (PCT Publication No. WO 2014/150413). Prior to exposure, mice were surgically instrumented with placement of femoral artery and vein catheters for blood pressure monitoring, blood sampling and infusions of either recombinant neuroglobin (rNgb), another type of CO scavenging globin protein, or PBS as a control. Mice were infused with 250 μL of 8-12 mM rNgb or PBS within 4 minutes using a Harvard infusion pump. Immediately after infusion and every 5 minutes, 5 μL of blood was collected for measurement of HbCO. […] In particular, after 5 minutes of return to normal air, the HbCO levels dropped by an average of 32.8% in the group that received rNgb versus 13.3% in the group that received PBS (FIG. 1).

[5] = rNgb found in urinary bladder after infusion; assay type: in vivo; conditions: after 60 minutes, mice sacrificed
Description: as §1

O=S([O-])S(=O)[O-].[Na+].[Na+] [Dithionite, sodium dithionite]
LD50 dose in mice [1]: about 62.5 mg
LD50 [2]: 2500 mg/kg body weight
predicted human LD50 [3]: 0.5 g/kg

B1: rNgb: recombinant neuroglobin, another type of CO scavenging globin protein (protein, UniProt Q9NPG2 1-151, looked up)
Neuroglobin: MERPEPELIRQSWRAVSRSPLEHGTVLFARLFALEPDLLPLFQYNCRQFSSPEDCLSSPEFLDHIRKVMLVIDAAVTNVEDLSSLEEYLASLGRKHRAVGVKLSSFSTVGESLLYMLEKCLGPAFTPATRAAWSQLYGAVVQAMSRGWDGE
drop of HbCO levels [4]: 32.8%
rNgb in urinary bladder [5]: millimolar concentrations
